IC50 data for 15 compounds are collected here from patent US12398154B2, “Azaquinazoline pan-KRas inhibitors” (Mirati Therapeutics, Inc., priority 2020, dated 2025).

Some targets named below: KRas G12D (Homo sapiens, UniProt P01116, G12D); KRas G12V (Homo sapiens, UniProt P01116, G12V); KRas G12R (Homo sapiens, UniProt P01116, G12R); KRas G12A (Homo sapiens, UniProt P01116, G12A); KRas G12S (Homo sapiens, UniProt P01116, G12S); KRas G12C (Homo sapiens, UniProt P01116, G12C); KRas WT (Homo sapiens, UniProt P01116).
Test in all cases: biochemical

Sequence of KRas G12C (P01116 1-169 isoform P01116-2 G12C): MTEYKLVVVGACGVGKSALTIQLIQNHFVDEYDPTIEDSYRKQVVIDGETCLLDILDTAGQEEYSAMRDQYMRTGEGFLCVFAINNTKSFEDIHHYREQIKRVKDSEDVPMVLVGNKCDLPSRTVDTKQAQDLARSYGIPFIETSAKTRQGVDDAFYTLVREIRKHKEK
Sequence of KRas G12A (P01116 1-169 isoform P01116-2 G12A): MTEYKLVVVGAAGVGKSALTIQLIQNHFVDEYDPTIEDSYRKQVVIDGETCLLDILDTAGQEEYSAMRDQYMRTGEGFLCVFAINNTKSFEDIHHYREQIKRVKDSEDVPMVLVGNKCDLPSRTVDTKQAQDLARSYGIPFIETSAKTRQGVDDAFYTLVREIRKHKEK
Sequence of KRas G12R (P01116 1-169 isoform P01116-2 G12R): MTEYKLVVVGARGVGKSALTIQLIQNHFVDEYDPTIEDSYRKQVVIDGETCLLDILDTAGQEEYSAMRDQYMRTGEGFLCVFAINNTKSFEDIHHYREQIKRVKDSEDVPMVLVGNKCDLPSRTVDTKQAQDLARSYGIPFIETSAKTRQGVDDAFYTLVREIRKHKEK
Sequence of KRas WT (P01116 1-169 isoform P01116-2): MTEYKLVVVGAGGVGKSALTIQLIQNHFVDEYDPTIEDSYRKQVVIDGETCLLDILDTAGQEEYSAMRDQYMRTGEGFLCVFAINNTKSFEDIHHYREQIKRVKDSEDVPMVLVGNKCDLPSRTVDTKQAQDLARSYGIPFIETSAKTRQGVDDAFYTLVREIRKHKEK
Sequence of KRas G12V (P01116 1-169 isoform P01116-2 G12V): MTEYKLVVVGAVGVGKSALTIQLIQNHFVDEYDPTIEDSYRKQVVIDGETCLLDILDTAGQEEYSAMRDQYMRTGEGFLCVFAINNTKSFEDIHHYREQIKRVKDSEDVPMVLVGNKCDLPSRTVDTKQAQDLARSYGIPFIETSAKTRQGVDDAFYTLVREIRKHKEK
Sequence of KRas G12S (P01116 1-169 isoform P01116-2 G12S): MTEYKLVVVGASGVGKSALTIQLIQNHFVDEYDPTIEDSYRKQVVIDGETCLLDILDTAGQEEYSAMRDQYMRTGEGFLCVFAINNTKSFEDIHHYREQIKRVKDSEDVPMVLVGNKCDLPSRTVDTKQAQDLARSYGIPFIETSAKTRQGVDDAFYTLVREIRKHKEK
Sequence of KRas G12D (P01116 1-169 isoform P01116-2 G12D): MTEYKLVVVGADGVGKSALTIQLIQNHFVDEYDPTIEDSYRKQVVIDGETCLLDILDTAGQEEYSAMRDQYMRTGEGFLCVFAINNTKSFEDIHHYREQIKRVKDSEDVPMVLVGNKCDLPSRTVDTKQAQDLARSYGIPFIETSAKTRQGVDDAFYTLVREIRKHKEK

As for `C#Cc1cccc2cccc(-c3ncc4c(N5CCCC(CS(N)(=O)=O)C5)nc(OCC56CCCN5CCC6)nc4c3F)c12` (stereo not drawn) [Example 437, 1-(1-(7-(8-ethynylnaphthalene-1-yl)-8-fluoro-2-((hexahydro-1H-pyrrolizin-7a-yl)methoxy)pyrido[4,3-d]pyrimidin-4-yl)piperidin-3-yl)methanesulfonamide], the IC50 at KRas G12D came out at 1430 nM; against KRas G12V it was 2680 nM; on KRas G12R, 2760 nM; on KRas G12A it was 1360 nM; on KRas G12S it was 904 nM; on KRas G12C it was 1400 nM. Also, the midpoint of inhibition against KRas WT, the IC50, lay at 715 nM.
As to `Cc1cccc2cccc(-c3ncc4c(N5CCCC(CS(N)(=O)=O)C5)nc(OCC56CCCN5CCC6)nc4c3F)c12` (stereo not drawn) [Example 438, 1-(1-(8-fluoro-2-((hexahydro-1H-pyrrolizin-7a-yl)methoxy)-7-(8-methylnaphthalen-1-yl)pyrido[4,3-d]pyrimidin-4-yl)piperidin-3-yl)methanesulfonamide], the half-inhibitory concentration (IC50) at KRas G12D is 238 nM; at KRas G12V it was 239 nM; at KRas G12R it was 99 nM; against KRas G12A, 109 nM; against KRas G12S it was 106 nM; against KRas G12C it was 130 nM. Besides, at KRas WT, the IC50 turned out to be 95 nM.
As to `NS(=O)(=O)CC1CCCN(c2nc(OCC34CCCN3CCC4)nc3c(F)c(-c4cccc5cccc(CO)c45)ncc23)C1` (stereo not drawn) [Example 439, 1-(1-(8-fluoro-2-((hexahydro-1H-pyrrolizin-7a-yl)methoxy)-7-(8-(hydroxymethyl)naphthalen-1-yl)pyrido[4,3-d]pyrimidin-4-yl)piperidin-3-yl)methanesulfonamide], the IC50 against KRas G12D is 7970 nM; at KRas G12V it was 5790 nM; against KRas G12R it was 2830 nM; against KRas G12A, 2150 nM; against KRas G12S, 2260 nM; against KRas G12C it was 2530 nM. Also, at KRas WT, half-maximal inhibition (IC50) required 2030 nM.
With `CC1(O)CCCN(c2nc(OCC34CCCN3CCC4)nc3c(F)c(-c4cccc5cccc(C6CC6)c45)ncc23)C1` (stereo not drawn) [Example 440, 1-(7-(8-cyclopropylnaphthalen-1-yl)-8-fluoro-2-((hexahydro-1H-pyrrolizin-7a-yl)methoxy)pyrido[4,3-d]pyrimidin-4yl)-3-methylpiperidin-3-ol], the 50% inhibitory concentration (IC50) was determined as 510 nM on KRas G12D; 844 nM on KRas G12V; 1720 nM at KRas G12R; 758 nM on KRas G12A; 690 nM against KRas G12S; 550 nM against KRas G12C. The compound also displayed a concentration for half-maximal inhibition (IC50) against KRas WT of 714 nM.
In the case of `O=S1(=O)CC(CNc2nc(OCC34CCCN3CCC4)nc3c(F)c(-c4cccc5cccc(CO)c45)ncc23)C1` [Example 443, 3-(((8-fluoro-2-((hexahydro-1H-pyrrolizin-7a-yl)methoxy)-7-(8-(hydroxymethyl)naphthalen-1-yl)pyrido[4,3-d]pyrimidin-4-yl)amino)methyl)thietane1,1-dioxide], the half-maximal inhibitory concentration (IC50) came out at 53000 nM against KRas G12D; 4210 nM at KRas G12V; 6380 nM against KRas G12R; 8470 nM on KRas G12A; 6310 nM at KRas G12S; 8200 nM against KRas G12C. This compound also had an IC50 on KRas WT of 18800 nM.
For the compound `O=C1NC(=O)C2(CCCN(c3nc(OCC45CCCN4CCC5)nc4c(F)c(-c5cccc6cccc(CO)c56)ncc34)C2)N1` (stereo not drawn) [Example 447, 7-(8-fluoro-2-((hexahydro-1H-pyrrolizin-7a-yl)methoxy)-7-(8-(hydroxymethyl)naphthalen-1-yl)pyrido[4,3-d]pyrimidin-4-yl)-1,3,7-triazaspiro[4.5]decane-2,4-dione], the concentration for half-maximal inhibition (IC50) on KRas G12D was 1100 nM; at KRas G12V, 744 nM; against KRas G12R, 964 nM; against KRas G12A, 665 nM; at KRas G12S, 587 nM; on KRas G12C it was 608 nM. This compound also returned an IC50 against KRas WT of 557 nM.
As to `Cc1cccc2cccc(-c3ncc4c(N5CCCC6(C5)NC(=O)NC6=O)nc(OCC56CCCN5CCC6)nc4c3F)c12` (stereo not drawn) [Example 448, 7-(8-fluoro-2-((hexahydro-1H-pyrrolizin-7a-yl)methoxy)-7-(8-methylnaphthalen-1-yl)pyrido[4,3-d]pyrimidin-4-yl)-1,3,7-triazaspiro[4.5]decane-2,4-dione], the half-maximal inhibitory concentration (IC50) on KRas G12D came out at 87 nM; against KRas G12V, 54 nM; on KRas G12R it was 61 nM; against KRas G12A, 59 nM; against KRas G12S it was 49 nM; against KRas G12C, 53 nM. In addition, it took 53 nM to reach half-maximal inhibition on KRas WT (IC50).
Take `N#Cc1cccc2cccc(-c3ncc4c(N5CCCC6(C5)NC(=O)NC6=O)nc(OCC56CCCN5CCC6)nc4c3F)c12` (stereo not drawn) [Example 449, 8-(4-(2,4-dioxo-1,3,7-triazaspiro[4.5]decan-7-yl)-8-fluoro-2-((hexahydro-1H-pyrrolizin-7a-yl)methoxy)pyrido[4,3-d]pyrimidin-7-yl)-1-naphthonitrile]: the 50% inhibitory concentration (IC50) against KRas G12D came to 8390 nM; against KRas G12V, 3660 nM; against KRas G12R it was 4380 nM; against KRas G12A, 5620 nM; on KRas G12S it was 4160 nM; at KRas G12C it was 3600 nM. For the same compound, inhibition against KRas WT was half-maximal at 4070 nM (IC50).
Regarding `Cc1cccc2cccc(-c3ncc4c(N5CCCC6(CC(=O)N6)C5)nc(OCC56CCCN5CCC6)nc4c3F)c12` (stereo not drawn) [Example 450, 6-(8-fluoro-2-((hexahydro-1H-pyrrolizin-7a-yl)methoxy)-7-(8-methylnaphthalen-1-yl)pyrido[4,3-d]pyrimidin-4-yl)-1,6-diazaspiro[3.5]nonan-2-one], the IC50 on KRas G12D stood at 250 nM; against KRas G12V it was 238 nM; at KRas G12R it was 344 nM; at KRas G12A it was 356 nM; at KRas G12S, 276 nM; on KRas G12C, 235 nM. Besides, the half-inhibitory concentration (IC50) at KRas WT was 335 nM.
With `N#Cc1cccc2cccc(-c3ncc4c(N5CCCC6(CC(=O)N6)C5)nc(OCC56CCCN5CCC6)nc4c3F)c12` (stereo not drawn) [Example 451, 8-(8-fluoro-2-((hexahydro-1H-pyrrolizin-7a-yl)methoxy)-4-(2-oxo-1,6-diazaspiro[3.5]nonan-6-yl)pyrido[4,3-d]pyrimidin-7-yl)-1-naphthonitrile], the IC50 is 2580 nM at KRas G12D; 2860 nM on KRas G12V; 4170 nM against KRas G12R; 3120 nM on KRas G12A; 2060 nM against KRas G12S; 1900 nM at KRas G12C. This compound also yielded a 50% inhibitory concentration (IC50) on KRas WT of 2270 nM.
For the compound `O=C1NCC2(CCCN(c3nc(OCC45CCCN4CCC5)nc4c(F)c(-c5cccc6cccc(CO)c56)ncc34)C2)N1` (stereo not drawn) [Example 453, 7-(8-fluoro-2-((hexahydro-1H-pyrrolizin-7a-yl)methoxy)-7-(8-(hydroxymethyl)naphthalen-1-yl)pyrido[4,3-d]pyrimidin-4-yl)-1,3,7-triazaspiro[4.5]decan-2-one], the IC50 against KRas G12D amounted to 274 nM; against KRas G12V, 569 nM; on KRas G12R, 1120 nM; at KRas G12A it was 559 nM; against KRas G12S it was 459 nM; against KRas G12C it was 484 nM. The compound further returned an IC50 against KRas WT of 467 nM.
Regarding `Cc1cccc2cccc(-c3ncc4c(N5CCCC6(CNC(=O)N6)C5)nc(OCC56CCCN5CCC6)nc4c3F)c12` (stereo not drawn) [Example 454, 7-(8-fluoro-2-((hexahydro-1H-pyrrolizin-7a-yl)methoxy)-7-(8-methylnaphthalen-1-yl)pyrido[4,3-d]pyrimidin-4-yl)-1,3,7-triazaspiro[4.5]decan-2-one], the concentration for half-maximal inhibition (IC50) against KRas G12D came out at 105 nM; at KRas G12V, 191 nM; against KRas G12R it was 421 nM; at KRas G12A, 176 nM; against KRas G12S it was 167 nM; at KRas G12C, 157 nM. Further, half-maximal inhibition on KRas WT (IC50) was put at 163 nM.
As for `Cc1cccc2cccc(-c3ncc4c(N5CCCC(c6nc[nH]n6)C5)nc(OCC56CCCN5CCC6)nc4c3F)c12` (stereo not drawn) [Example 455, 4-(3-(1H-1,2,4-triazol-3-yl)piperidin-1-yl)-8-fluoro-2-((hexahydro-1H-pyrrolizin-7a-yl)methoxy)-7-(8-methylnaphthalen-1-yl)pyrido[4,3-d]pyrimidine], the half-inhibitory concentration (IC50) on KRas G12D was found to be 6350 nM; against KRas G12V, 5150 nM; on KRas G12R, 4510 nM; against KRas G12A it was 5990 nM; against KRas G12S it was 8170 nM; at KRas G12C, 8470 nM. This compound also came in with an IC50 against KRas WT of 11700 nM.
Take `C#Cc1cccc2cccc(-c3ncc4c(N5C[C@@H]6C(=O)NC(=O)[C@@H]6C5)nc(OCC56CCCN5CCC6)nc4c3F)c12` [Example 458, (3aR,6aS)-5-(7-(8-ethynylnaphthalen-1-yl)-8-fluoro-2-((hexahydro-1H-pyrrolizin-7a-yl)methoxy)pyrido[4,3-d]pyrimidin-4-yl)tetrahydropyrrolo[3,4-c]pyrrole-1,3(2H,3aH)-dione]: the concentration for half-maximal inhibition (IC50) on KRas G12D was found to be 15 nM; against KRas G12V, 39 nM; at KRas G12R, 172 nM; on KRas G12A, 97 nM; at KRas G12S, 28 nM; against KRas G12C it was 75 nM. The compound further came in with an IC50 on KRas WT of 53 nM.
Turning to `NS(=O)(=O)CC1CCCN(c2nc(OCC34CCCN3CCC4)nc3c(F)c(-c4cccc5cccc(CF)c45)ncc23)C1` (stereo not drawn) [Example 460, 1-(1-(8-fluoro-7-(8-(fluoromethyl)naphthalen-1-yl)-2-((hexahydro-1H-pyrrolizin-7a-yl)methoxy)pyrido[4,3-d]pyrimidin-4-yl)piperidin-3-yl)methanesulfonamide], the IC50 came out at 2320 nM on KRas G12D; 1470 nM against KRas G12V; 548 nM against KRas G12R; 760 nM against KRas G12A; 759 nM at KRas G12S; 916 nM on KRas G12C. On KRas WT, this compound displayed an IC50 of 693 nM.

In general, IC50 refers to the point on the concentration scale where inhibition reaches its midpoint.
